# Results reported in patent US7494714B2, “Surfaces that resist the adsorption of biological species” (President & Fellows of Harvard College, priority 2000, dated 2009).
# How the values were obtained:
# [1] = biological target: T1, Carbonic anhydrase II (bovine) (Bos taurus, UniProt P00921); assay: SPR binding of CA to immobilised benzene sulfonamide ligands
# T1 construct: purchased Sigma (St. Louis, Mo.)
# Description: Curve 1: CA (5 μM) with a mixture of proteins (each at 0.2 mg/mL) including fibrinogen, RNase, lysozyme, and myoglobin; Curve 2: CA (5 μM); Curve 3: a mixture of proteins as in 1 without CA; Curve 4: CA (5 μM) with 1 mM soluble benzenesulfonamide ligand.
# CA = CA (Bos taurus, UniProt P00921); conditions: soluble ligand; cited from earlier work
# Sequence of CA (P00921 whole entry): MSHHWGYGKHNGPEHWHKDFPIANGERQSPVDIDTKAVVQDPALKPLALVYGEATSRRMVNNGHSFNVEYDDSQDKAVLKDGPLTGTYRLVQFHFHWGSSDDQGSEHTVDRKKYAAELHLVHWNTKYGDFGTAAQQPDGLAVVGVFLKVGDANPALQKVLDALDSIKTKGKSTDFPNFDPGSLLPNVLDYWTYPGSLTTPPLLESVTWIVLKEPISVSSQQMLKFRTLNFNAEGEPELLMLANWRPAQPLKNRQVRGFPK
# [2] = system: mixture of fibrinogen, myoglobin, lysozyme, and RNase; assay: SPR nonspecific adsorption from a mixture of proteins; format: binding; conditions: mixed SAM presenting 13 and —CONH(CH2CH2O)6H/—CO2H groups
# [3] = Contact angle of deionized water under cyclooctane; format: physicochemical; conditions: mixed SAM
# lysozyme = lysozyme (Gallus gallus, UniProt P00698); assay: SPR adsorption of lysozyme to SAMs / grafted polymer films; format: binding; conditions: mixed SAM —CONRR′/—CO2H; for % MLlys 3 min: 1 mg/mL lysozyme flowed 3 min; for % MLlys 30 min: 1 mg/mL lysozyme flowed 30 min
# Sequence of lysozyme (P00698 19-147): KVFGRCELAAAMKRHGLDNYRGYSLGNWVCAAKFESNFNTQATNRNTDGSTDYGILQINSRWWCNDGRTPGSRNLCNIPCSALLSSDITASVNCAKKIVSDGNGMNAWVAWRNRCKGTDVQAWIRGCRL
# fibrinogen = biological target: T2, fibrinogen (Bos taurus, UniProt P02672+P02676+P12799); assay: SPR adsorption of fibrinogen to SAMs / grafted polymer films; format: binding, bovine; conditions: mixed SAM —CONRR′/—CO2H; for % MLfib 3 min: 1 mg/mL fibrinogen flowed 3 min, relative to —CONH(CH2)10CH3/—CO2H SAM; for % MLfib 30 min: 1 mg/mL fibrinogen flowed 30 min
# T2 sequence (P02672 20-615): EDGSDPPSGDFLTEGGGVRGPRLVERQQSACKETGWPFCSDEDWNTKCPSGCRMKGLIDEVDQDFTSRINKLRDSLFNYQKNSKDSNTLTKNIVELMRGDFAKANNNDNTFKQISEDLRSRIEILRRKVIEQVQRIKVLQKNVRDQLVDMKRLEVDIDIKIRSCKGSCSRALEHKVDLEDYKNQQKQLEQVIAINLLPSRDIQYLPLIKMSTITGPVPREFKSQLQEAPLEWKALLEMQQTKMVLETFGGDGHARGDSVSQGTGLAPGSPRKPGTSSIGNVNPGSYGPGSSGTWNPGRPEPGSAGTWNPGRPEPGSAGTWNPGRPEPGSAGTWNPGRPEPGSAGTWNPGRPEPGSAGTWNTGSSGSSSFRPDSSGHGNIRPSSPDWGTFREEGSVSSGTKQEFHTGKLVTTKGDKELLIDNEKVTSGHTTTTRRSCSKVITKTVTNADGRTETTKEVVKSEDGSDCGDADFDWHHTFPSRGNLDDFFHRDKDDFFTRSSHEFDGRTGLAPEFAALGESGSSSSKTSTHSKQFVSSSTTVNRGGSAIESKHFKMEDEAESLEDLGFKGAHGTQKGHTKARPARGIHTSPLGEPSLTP
# T2 sequence (P02676 1-468): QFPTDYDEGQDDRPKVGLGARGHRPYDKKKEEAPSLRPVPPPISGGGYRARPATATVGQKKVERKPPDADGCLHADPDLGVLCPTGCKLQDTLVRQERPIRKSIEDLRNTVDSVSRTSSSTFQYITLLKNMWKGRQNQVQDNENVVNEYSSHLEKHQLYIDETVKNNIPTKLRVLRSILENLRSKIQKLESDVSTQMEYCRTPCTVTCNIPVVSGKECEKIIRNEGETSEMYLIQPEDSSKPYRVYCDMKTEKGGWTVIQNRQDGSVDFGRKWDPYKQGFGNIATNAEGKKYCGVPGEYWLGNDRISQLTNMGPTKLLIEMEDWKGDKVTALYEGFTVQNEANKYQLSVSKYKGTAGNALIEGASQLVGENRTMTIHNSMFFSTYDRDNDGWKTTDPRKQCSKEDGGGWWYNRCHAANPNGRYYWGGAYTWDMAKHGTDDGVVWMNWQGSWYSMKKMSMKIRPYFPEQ
# T2 sequence (P12799 25-444): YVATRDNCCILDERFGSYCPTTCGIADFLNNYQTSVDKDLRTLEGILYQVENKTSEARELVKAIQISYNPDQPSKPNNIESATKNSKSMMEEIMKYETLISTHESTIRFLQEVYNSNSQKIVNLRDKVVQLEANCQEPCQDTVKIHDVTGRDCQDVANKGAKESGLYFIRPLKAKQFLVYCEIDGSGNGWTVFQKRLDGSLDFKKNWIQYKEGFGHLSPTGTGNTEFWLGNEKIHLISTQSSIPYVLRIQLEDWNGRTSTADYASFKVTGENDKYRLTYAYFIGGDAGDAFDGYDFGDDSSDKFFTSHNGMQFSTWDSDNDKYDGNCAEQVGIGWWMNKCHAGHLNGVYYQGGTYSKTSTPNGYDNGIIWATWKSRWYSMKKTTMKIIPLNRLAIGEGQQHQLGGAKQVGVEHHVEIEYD
# T1 sequence (P00921 whole entry): as the sequence (P00921 whole entry) above
Compound,competitive inhibition of binding of CA to the mixed SAM presenting 13 ([1]; 1 mM added to the CA-containing solution),Kd (CA) [µM],"reversibility of binding of CA ([1]; CA 5 μM in PBS, mixed SAM presenting 13) [%]","kon ([1]; SPR, CA 5 μM in PBS, surfaces of this work (entry 4, LPEI entries 6-9)) [M^-1S^-1]","koff ([1]; SPR, surfaces of this work (entry 4, LPEI entries 6-9)) [S^-1]",nonspecific adsorption of protein [2],θco sessile [3] [degrees],% Lysoff (percent decrease in adsorbed protein during 10 minute PBS wash) (lysozyme) [%],dR/dton lysozyme (maximum initial rate of adsorption) (lysozyme) [RU/sec],% MLlys 3 min (lysozyme) [%],% MLlys 30 min (lysozyme) [%],% Fiboff (percent decrease in adsorbed protein during 10 minute PBS wash) (fibrinogen) [%],dR/dton fibrinogen (maximum initial rate of adsorption) (fibrinogen) [RU/sec],% MLfib 3 min (fibrinogen) [%],% MLfib 30 min (fibrinogen) [%]
"COC(=O)CNC(=O)c1ccc(S(N)(=O)=O)cc1 [benzene sulfonamide 14, H2NSO2C6H4—CONHCH2CO2CH3, reference compound]",completely inhibited,63,,,,,,,,,,,,,
"NCCOCCOCCOCCOCCOCCOCC(=O)NCCCCCCNC(=O)c1ccc(S(N)(=O)=O)cc1 [compound 13, [6-(2-{2-[2-(2-{2-[2-(2-Amino-ethoxy)-ethoxy]-ethoxy}-ethoxy)-ethoxy]-ethoxy}-ethanoylamino)-hexyl]-4-sulfamoyl-benzamide]",,,> 90,13000,0.0054,did not adsorb a detectable amount of protein,,,,,,,,,
CNCCN(C)C(C)=O,,,,,,,46,330 ± 15,170 ± 30,0.5 ± 0.2,3.8 ± 2,15 ± 1,40 ± 10,2.1 ± 0.3,12 ± 3
CNCCN(C)C(=O)OC,,,,,,,70,150 ± 2,670 ± 50,4.3 ± 0.2,43 ± 3,20 ± 2,330 ± 70,26 ± 0.2,58 ± 0.3
CNCCN(C)C(=O)N(C)C,,,,,,,62,160 ± 10,670 ± 50,2.1 ± 0.2,11 ± 0.5,15 ± 2,60 ± 30,5.9 ± 0.2,25 ± 1
CNCCN(C)C,,,,,,,49,300 ± 30,400 ± 200,1.9 ± 0.1,14 ± 2,13 ± 2,140 ± 40,23 ± 4,40 ± 2
NC(CCCO)(CCCO)CCCO [H2NC(CH2CH2CH2OH)3],,,,,,,70,140 ± 2,1400 ± 110,30 ± 0.6,73 ± 5,14 ± 0.5,350 ± 220,34 ± 2.2,57 ± 0.2
H(CH3)NCH2CH(OCH3)2,,,,,,,70,190 ± 2,740 ± 300,4.6 ± 2,19 ± 5,15 ± 4,510 ± 400,16 ± 2,36 ± 1
